Drawing on PubChem BioAssay AID342 (DTP/NCI, 2004), this text covers T/C for 18 compounds.

The assay deals with Swiss mice, Sarcoma 180 sc, mean tumor weight T/C. The experiment in a line: NCI In Vivo Anticancer Drug Screen. Data for tumor model Sarcoma 180 (subcutaneous) in Swiss mice. Particulars: endpoint: mean tumor weight, higher = larger tumour. The procedure, abridged: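 Tumor-bearing mice, transplantable tumor; readout survival or tumor size; result = T/C, treated vs vehicle control.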

[1] abbreviates: dose: 25.0 mg/kg/injection, schedule: Q01DX007 (ip), vehicle: carboxymethylcellulose (CMC).
Setting [2] is: dose: 750.0 mg/kg/injection, schedule: Q01DX007 (ip), vehicle: saline.
The mark [3] stands for this setting: dose: 7.5 mg/kg/injection, schedule: Q01DX007 (ip), vehicle: saline.

Values joined by “and” are separate entries in the source; they are usually repeats but may differ in a detail not shown here. Equal entries are not always repeated.

With `CN(C)[C@@H]1C(=O)C(C(=O)NCNCCCC(=O)O)=C(O)[C@@]2(O)C(=O)C3=C(O)c4c(O)cccc4[C@@](C)(O)[C@H]3C[C@@H]12`, the T/C was 97 % of control and 112 % of control (dose: 111.0 mg/kg/injection, schedule: Q#A X014 (ip), vehicle: saline); 101 % of control and 105 % of control (dose: 166.5 mg/kg/injection, schedule: Q#A X014 (ip), vehicle: saline); 52 % of control (dose: 250.0 mg/kg/injection, schedule: Q#A X014 (ip), vehicle: saline).

`CC(C)CN(C)/N=N/c1nc[nH]c1C(N)=O`: the T/C is 92 % of control under setting [1] and 41 % of control (dose: 50.0 mg/kg/injection, schedule: Q01DX007 (ip), vehicle: carboxymethylcellulose (CMC)).

As to `Cc1cc(=O)[nH]c(N=Nc2c(O)[nH]c3ccccc23)n1`, the T/C (dose: 222.0 mg/kg/injection, schedule: Q01DX007 (ip), vehicle: saline) is 58 % of control; the T/C (dose: 333.0 mg/kg/injection, schedule: Q01DX007 (ip), vehicle: saline) is 75 % of control; the T/C (dose: 500.0 mg/kg/injection, schedule: Q01DX007 (ip), vehicle: saline) was 43 % of control; the T/C under setting [2] was 59 % of control.

As to `CO[C@H]1CC[C@@]2(C)C(=CC[C@H]3[C@@H]4C[C@H](O)[C@H](OC)[C@@]4(C)CC[C@@H]32)C1`, the T/C by setting is: (dose: 0.25 mg/kg/injection, schedule: Q#A X014 (sc), vehicle: steriod suspending solution) 94 % of control; (dose: 2.5 mg/kg/injection, schedule: Q#A X014 (sc), vehicle: steriod suspending solution) 85 % of control; (dose: 10.0 mg/kg/injection, schedule: Q#A X014 (sc), vehicle: steriod suspending solution) 122 % of control; (dose: 50.0 mg/kg/injection, schedule: Q#A X014 (sc), vehicle: steriod suspending solution) 97 % of control.

`CS(=O)(=O)OCC#CCOS(C)(=O)=O`: the T/C is 99 % of control (dose: 10.0 mg/kg/injection, schedule: Q01DX007 (ip), vehicle: saline); 84 % of control (dose: 20.0 mg/kg/injection, schedule: Q01DX007 (ip), vehicle: saline); 104 % of control (dose: 40.0 mg/kg/injection, schedule: Q01DX007 (ip), vehicle: saline).

On to `CCc1nc(N)nc(N)c1-c1ccc(Cl)c(Cl)c1.O.O.[Zn]`, for which the T/C (dose: 1.5 mg/kg/injection, schedule: Q01DX007 (ip), vehicle: carboxymethylcellulose (CMC)) is 62 % of control; the T/C (dose: 2.3 mg/kg/injection, schedule: Q01DX007 (ip), vehicle: carboxymethylcellulose (CMC)) was 65 % of control; the T/C (dose: 3.5 mg/kg/injection, schedule: Q01DX007 (ip), vehicle: carboxymethylcellulose (CMC)) is 46 % of control; the T/C (dose: 8.0 mg/kg/injection, schedule: Q01DX007 (ip), vehicle: carboxymethylcellulose (CMC)) is 39 % of control; the T/C (dose: 12.0 mg/kg/injection, schedule: Q01DX007 (ip), vehicle: carboxymethylcellulose (CMC)) was 18 % of control.

As to `CCCC(=O)OCC1OC(n2cnc3c(=S)nc[nH]c32)C(OC(=O)CCC)C1OC(=O)CCC` (configuration not stated), the T/C (dose: 250.0 mg/kg/injection, schedule: Q01DX007 (ip), vehicle: carboxymethylcellulose (CMC)) is 36 % of control.

Regarding `O=S(=O)(O)C(Nc1ccccc1)c1ccccc1` (configuration not stated), the T/C is, setting by setting: (dose: 24.0 mg/kg/injection, schedule: Q01DX007 (ip), vehicle: carboxymethylcellulose (CMC)) 80 % of control; (dose: 36.0 mg/kg/injection, schedule: Q01DX007 (ip), vehicle: carboxymethylcellulose (CMC)) 94 % of control; (dose: 54.0 mg/kg/injection, schedule: Q01DX007 (ip), vehicle: carboxymethylcellulose (CMC)) 92 % of control; (dose: 81.0 mg/kg/injection, schedule: Q01DX007 (ip), vehicle: carboxymethylcellulose (CMC)) 93 % of control; (dose: 162.0 mg/kg/injection, schedule: Q01DX007 (ip), vehicle: carboxymethylcellulose (CMC)) 113 % of control; (dose: 324.0 mg/kg/injection, schedule: Q01DX007 (ip), vehicle: carboxymethylcellulose (CMC)) 84 % of control.

As to `Nc1nc(Cc2ccccc2)cc(=O)[nH]1`, the T/C by setting is: (dose: 62.5 mg/kg/injection, schedule: Q01DX007 (ip), vehicle: water) 88 % of control; (dose: 125.0 mg/kg/injection, schedule: Q01DX007 (ip), vehicle: water) 78 % of control; (dose: 250.0 mg/kg/injection, schedule: Q01DX007 (ip), vehicle: water) 67 % of control.

Consider `[N-]=[N+]=CC(=O)CCC(N)C(=O)O` (configuration not stated), for which the T/C is 45 % of control and 59 % of control (dose: 12.5 mg/kg/injection, schedule: Q#A X014 (ip), vehicle: saline); 6 % of control and 17 % of control (dose: 25.0 mg/kg/injection, schedule: Q#A X014 (ip), vehicle: saline); 70 % of control (dose: 25.0 micrograms/kg/injection, schedule: Q01DX007 (ip), vehicle: carboxymethylcellulose (CMC)); 51 % of control (dose: 50.0 micrograms/kg/injection, schedule: Q01DX007 (ip), vehicle: carboxymethylcellulose (CMC)); 8 % of control (dose: 100.0 micrograms/kg/injection, schedule: Q01DX007 (ip), vehicle: carboxymethylcellulose (CMC)).

Consider `COc1ccc2c(c1)CC[C@@H]1[C@@H]2CC[C@]2(C)C=CC[C@@H]12`, for which the T/C is 104 % of control (dose: 2.5 mg/kg/injection, schedule: Q01DX007 (sc), vehicle: steriod suspending solution); 91 % of control (dose: 5.0 mg/kg/injection, schedule: Q01DX007 (sc), vehicle: steriod suspending solution); 75 % of control (dose: 10.0 mg/kg/injection, schedule: Q01DX007 (sc), vehicle: steriod suspending solution).

As to `NC(=O)c1ccccc1Nc1ccc([N+](=O)[O-])cc1[N+](=O)[O-]`, the T/C runs as follows: (dose: 37.5 mg/kg/injection, schedule: Q01DX007 (ip), vehicle: carboxymethylcellulose (CMC)) 92 % of control; (dose: 75.0 mg/kg/injection, schedule: Q01DX007 (ip), vehicle: carboxymethylcellulose (CMC)) 67 % of control.

Take `Cc1cn(C2OC(CO)C(O)C2O)c(=O)[nH]c1=O` (configuration not stated): the T/C reads like this: under setting [3], 90 % of control; (dose: 30.0 mg/kg/injection, schedule: Q01DX007 (ip), vehicle: saline) 115 % of control; (dose: 60.0 mg/kg/injection, schedule: Q01DX007 (ip), vehicle: saline) 89 % of control; (dose: 120.0 mg/kg/injection, schedule: Q01DX007 (ip), vehicle: saline) 99 % of control.

For the compound `c1ccc2nc3ccccc3c-2cc1`, the T/C was 118 % of control (dose: 62.5 mg/kg/injection, schedule: Q01DX007 (ip), vehicle: saline); 106 % of control (dose: 125.0 mg/kg/injection, schedule: Q01DX007 (ip), vehicle: saline); 113 % of control (dose: 250.0 mg/kg/injection, schedule: Q01DX007 (ip), vehicle: saline); 85 % of control under setting [2]; 68 % of control (dose: 1000.0 mg/kg/injection, schedule: Q01DX007 (ip), vehicle: saline).

As for `Cc1cc(N)c2cc(NC(=O)/C=C\c3ccccc3Cl)ccc2n1`, the T/C (dose: 11.0 mg/kg/injection, schedule: Q01DX007 (ip), vehicle: carboxymethylcellulose (CMC)) was 89 % of control; the T/C (dose: 17.0 mg/kg/injection, schedule: Q01DX007 (ip), vehicle: carboxymethylcellulose (CMC)) is 77 % of control; the T/C under setting [1] was 46 % of control.

Turning to `O=C1C=CC(=O)N1c1ccc2c(c1)oc(=O)c1ccccc12`, the T/C was 76 % of control (dose: 60.0 mg/kg/injection, schedule: Q01DX007 (ip), vehicle: other); 58 % of control (dose: 95.0 mg/kg/injection, schedule: Q01DX007 (ip), vehicle: other); 51 % of control (dose: 99.0 mg/kg/injection, schedule: Q01DX007 (ip), vehicle: steriod suspending solution); 42 % of control (dose: 148.0 mg/kg/injection, schedule: Q01DX007 (ip), vehicle: other); 81 % of control (dose: 148.0 mg/kg/injection, schedule: Q01DX007 (ip), vehicle: steriod suspending solution); 36 % of control and 44 % of control (dose: 222.0 mg/kg/injection, schedule: Q01DX007 (ip), vehicle: other). The T/C by setting is: (dose: 222.0 mg/kg/injection, schedule: Q01DX007 (ip), vehicle: steriod suspending solution) 69 % of control; (dose: 333.0 mg/kg/injection, schedule: Q01DX007 (ip), vehicle: other) 49 % of control; (dose: 500.0 mg/kg/injection, schedule: Q01DX007 (ip), vehicle: other) 29 % of control.

In the case of `C[C@H]1/C(=C/C(=O)OCCN(C)C)CC[C@H]2[C@H]1C(=O)C[C@H]1C(C)(C)[C@@H](O)CC[C@]21C`, the T/C by setting is: (dose: 1.88 mg/kg/injection, schedule: Q01DX007 (ip), vehicle: saline) 60 % of control; (dose: 3.75 mg/kg/injection, schedule: Q01DX007 (ip), vehicle: saline) 64 % of control; under setting [3], 75 % of control.

With `COc1ccc2c3c(c4cc(OC)c(OC)cc4c2c1)C[C@H]1CCCCN1C3`, the T/C is 82 % of control (dose: 0.5 mg/kg/injection, schedule: Q01DX007 (ip), vehicle: carboxymethylcellulose (CMC)) and 65 % of control (dose: 1.0 mg/kg/injection, schedule: Q01DX007 (ip), vehicle: carboxymethylcellulose (CMC)).

One may read the T/C as the ratio of treated to control.
